Data reported in US11111222B2, “Hydroxyeicosatrienoic acid compounds and their use as therapeutic agents” (THE REGENTS OF THE UNIVERSITY OF MICHIGAN, priority 2016, dated 2021).

Columns and labels:
[1] = test system: adenylyl cyclase; test: LC/MS quantification of cAMP in washed human platelets; format: cell-based; settings: 25 μM, 1 min; platelets pre-treated with 10 μM IBMX; vs DMSO
Protocol: Washed human platelets were treated with the specific ligand or vehicle control for 1 min at room temperature, and quenched with an equal volume of ice-cold 2× platelet lysis buffer containing protease and phosphatase inhibitors. Lysed platelet samples were centrifuged at 14,000 g for 7 min at 4° C. to pellet cytoskeleton and the supernatant was stored in −80° C.
To prepare the sample for LC/MS injection, 200 μL of the supernatant was spiked with 400 pg of adenosine-3′,5′-cyclic-13C5 monophosphate (^13C5-cAMP) (Toronto Research Chemicals, Inc.), an internal standard, and 600 μL of LC/MS grade acetonitrile (Fisher Scientific). The sample was briefly vortexed and centrifuged at 14,000 rpm for 10 min at 4° C. The supernatants were then air dried in a SpeedVac and reconstituted in 200 μL of LC/MS grade water and centrifuged at 10,000 rpm for 5 min at 4° C. and used for LC/MS injection.
The separation and detection of cAMP was performed on a Waters ACQUITY UPLC system equipped with a Xevo Triple Quadrupole Mass Spectrometer (TQ-S MS/MS). […]
The mass spectrometer was operated with an ESI source in positive mode. […] Cyclic AMP (cAMP) was quantitated using ^13C5-cAMP as the internal standard. […]

[2] = Tail bleeding assay; format: in vivo, mouse; settings: mice retro-orbitally injected; 5 mm tail tip excised; vs control
Protocol: Mice were anesthetized with ketamine/xyzaline and placed on a heating pad in prone position, the tip of the tail (5 mm) was excised with a sterile scalpel, and the tails were immediately immersed into isotonic saline solution (0.9%) warmed to 37° C. Bleeding time was assessed until cessation of blood flow from the tail for 1 minute.

[3] = test system: Gαs; test: [35S]GTPγS binding to immunoprecipitated Gαs, platelet membranes; format: biochemical; settings: 25 μM; human platelet membranes; vs DMSO
Protocol: PRP was isolated from whole blood as described above and then incubated with 1 mM aspirin for 1 hour at 37° C. Platelets were pelleted at 2000 g for 10 min in the presence of 10×ACD and apyrase. The pelleted platelets were washed with Tyrode's and centrifuged at 2000×g with 10×ACD for 10 min at room temperature. The platelets were flash frozen with liquid nitrogen and then resuspended in cold detergent-free TME buffer (50 mM Tris-HCl, pH 7.5, 20 mM MgCl2, 2 mM EDTA, and 100 mM NaCl) with 1 μM GDP and protease and phosphatase inhibitors to lyse the platelets. The lysed platelets were centrifuged at 1500 g at 4° C. for 5 min. The supernatant was collected and centrifuged at 100,000×g for 30 min at 4° C. The pelleted membranes were resuspended in TME buffer with 1 μM GDP and stored at −80° C. prior to use. Fatty acid metabolites, agonists, or DMSO and [^35S]GTPγS (10 nM) were added to platelet membranes (60 μg/reaction) on ice, and the tubes were immediately transferred to a 30° C. water bath shaker for 20 min. The reaction was terminated by the addition of ice-cold IP buffer (50 mM Tris-HCl, pH 7.5, 20 mM MgCl2, 150 mM NaCl, 0.5% Nonidet P-40, 0.33% aprotinin, 0.1 mM GDP, and 0.1 mM GTP). The samples were pre-cleared with Protein A agarose beads and normal rabbit IgG for 30 min on a nutator at 4° C. and then aliquoted equally into two tubes containing either normal rabbit IgG or a Gs antibody that had been conjugated to Protein A agarose beads. The samples were incubated on a nutator for 1 hr at 4° C. and washed 4 times with IP buffer and 1 time in TME buffer. The samples were boiled in 0.5% SDS for 30 sec, and the supernatants were collected following brief centrifugation. The supernatants were analyzed in 8 mL of scintillation fluid. The background counts for the normal rabbit IgG (50-200 cpm) for each sample were subtracted from the anti-Gs immunoprecipitated samples prior to analyzing the data.

CCCCC/C=C\C[C@H](O)/C=C/C=C\CCCCCCC(=O)O [12(S)-HETrE, 12(S)-hydroxy-8Z,10E,14Z-eicosatrienoic acid]
level of intracellular cAMP [1]: significant increase in the level of intracellular cAMP | tail bleeding time [2]: no significant difference in tail bleeding time | [35S]GTPγS binding to immunoprecipitated Gαs [3]: significant increase in [^35S]GTPγS binding
